Laboratory results published in patent publication US20070167412A1, “HALOCOMBSTATINS AND METHODS OF SYNTHESIS THEREOF” (ARIZONA BOARD OF REGENTS, priority 2003, published 2007).

Key:
Assay type in all cases: cell-based
CNS SF268 = assay: human cancer cell growth inhibition, sulforhodamine B assay; conditions: 48 hours; for Human cancer cell line inhibition (GI50) CNS SF268: Table I; for human cancer cell line growth inhibition (GI50) CNS SF268: Table Ia
Protocol: (§1) Inhibition of human cancer cell growth was assessed using the National Cancer Institute's standard sulforhodamine B assay. After 48 hours, the plates were fixed with trichloracetic acid, stained with sulforhodamine B and read with an automated microplate reader. […] Inhibition of the mouse leukemia P388 cells was assessed in a 10% horse serum/Fisher medium soution for 24 hours, followed by a 48 hour incubation with serial dilutions of the compounds. Cell growth inhibition (ED50) was then calculated using a Z1 Becleman/Coulter particle counter.

Colon KM20L2 = assay: as above; conditions: 48 hours; for Human cancer cell line inhibition (GI50) Colon KM20L2: Table I; for human cancer cell line growth inhibition (GI50) Colon KM20L2: Table Ia
Protocol: as §1

Lung-NSC NCI-H460 = assay: as above; conditions: 48 hours; for Human cancer cell line inhibition (GI50) Lung-NSC NCI-H460: Table I; for human cancer cell line growth inhibition (GI50) Lung-NSC NCI-H460: Table Ia
Protocol: as §1

Breast MCF-7 = assay: as above; conditions: 48 hours; for Human cancer cell line inhibition (GI50) Breast adn MCF-7: Table I; for human cancer cell line growth inhibition (GI50) Breast MCF-7: Table Ia
Protocol: as §1

Pancreas BXPC-3 = assay: as above; conditions: 48 hours; for Human cancer cell line inhibition (GI50) Pancreas-a BXPC-3: Table I; for human cancer cell line growth inhibition (GI50) Pancreas BXPC-3: Table Ia
Protocol: as §1

Prostate DU-145 = assay: as above; conditions: 48 hours; for Human cancer cell line inhibition (GI50) Prostate DU-145: Table I; for human cancer cell line growth inhibition (GI50) Prostate DU-145: Table Ia
Protocol: as §1

Candida albicans = assay: reference broth microdilution susceptibility assay
Description: (§2) The halocombstatins of the present invention appear to also have antimicrobial properties. More specifically, they appear to have antifungal and/or antibacterial properties. Antimicrobial evaluation of the halocombstatins involved susceptibility testing performed by the reference broth microdilution assay. The antimicrobial activities of the halocombstatins were very similar, targeting Gram-positive bacteria and the pathogenic fungi Cryptococcus neoformans, and results are shown in Table III.
(§3) (See Pettit, G. R., et al., Antineoplastic Agents 463. Synthesis of Combretastatin A-3 Diphosphates, Anticancer Drug Design 2000, 15, 397-404.) To determine the antimicrobial activity of the present compounds, susceptibility testing was performed by the reference broth microdilution assay. (See National Committee for Clinical Laboratory Standards. Methods for Dilution Antimicrobial Susceptibility Tests for Bacteria that Grow Aerobically. Approved Standard M7-A5. Wayne, P A: NCCLS, 2000. National Committee for Clinical Laboratory Standards. Reference Method for Broth Dilution Antifungal Susceptibility Testing of Yeasts. Aproved Standard M27-A. Wayne, P A: NCCLS, 1997.) The antimicrobial activities of the halocombretastatins of the present invention were very similar, targeting Gram-positive bacteria and Cryptococcus neoformans. This is illustrated in further detail in Table III. Thus, several of the novel compounds of the present invention appear to have potential as antimicrobial agents, such as antifingals and antibacterials.

Cryptococcus neoformans = assay: reference broth microdilution susceptibility assay
Description: as §2, §3

Enterobacter cloacae = assay: reference broth microdilution susceptibility assay
Description: as §2, §3

Enterococcus faecalis = assay: reference broth microdilution susceptibility assay
Description: as §2, §3

Escherichia coli = assay: reference broth microdilution susceptibility assay
Description: as §2, §3

Micrococcus luteus = assay: reference broth microdilution susceptibility assay
Description: as §2, §3

Neisseria gonorrhoeae = assay: reference broth microdilution susceptibility assay
Description: as §2, §3

Staphylococcus aureus = assay: reference broth microdilution susceptibility assay
Description: as §2, §3

[1] = system: Stenotrophomonas maltophilia; assay: reference broth microdilution susceptibility assay
Description: as §2, §3

Streptococcus pneumoniae = assay: reference broth microdilution susceptibility assay
Description: as §2, §3

Row | Compound | Human cancer cell line inhibition (GI50) CNS SF268 (CNS SF268) | Human cancer cell line inhibition (GI50) Colon KM20L2 (Colon KM20L2) | Human cancer cell line inhibition (GI50) Lung-NSC NCI-H460 (Lung-NSC NCI-H460) | Human cancer cell line inhibition (GI50) Breast adn MCF-7 (Breast MCF-7) | Human cancer cell line inhibition (GI50) Pancreas-a BXPC-3 (Pancreas BXPC-3) | Human cancer cell line inhibition (GI50) Prostate DU-145 (Prostate DU-145) | human cancer cell line growth inhibition (GI50) Breast MCF-7 (Breast MCF-7) | human cancer cell line growth inhibition (GI50) CNS SF268 (CNS SF268) | human cancer cell line growth inhibition (GI50) Colon KM20L2 (Colon KM20L2) | human cancer cell line growth inhibition (GI50) Lung-NSC NCI-H460 (Lung-NSC NCI-H460) | human cancer cell line growth inhibition (GI50) Pancreas BXPC-3 (Pancreas BXPC-3) | human cancer cell line growth inhibition (GI50) Prostate DU-145 (Prostate DU-145) | further results
1 | sodium combretastatin A-4 phosphate [Compound 1b, reference compound] | 0.036 µg/mL | 0.034 µg/mL | 0.029 µg/mL |  |  |  |  |  |  |  |  |  | 
2 | Sodium 3-fluoro-4,4′,5-trimethoxy-Z-stilbene 3′-O-phosphate [Compound 18a] | 0.0051 µg/mL | 1.5 µg/mL | 0.0094 µg/mL | 0.0044 µg/mL | 0.59 µg/mL | 0.0036 µg/mL |  |  |  |  |  |  | Range of minimum inhibitory concentration, Candida albicans (Candida albicans; Table III): * (no inhibition at 64 μg/ml); Range of minimum inhibitory concentration, Cryptococcus neoformans (Cryptococcus neoformans; Table III): * (no inhibition at 64 μg/ml); Range of minimum inhibitory concentration, Enterobacter cloacae (Enterobacter cloacae; Table III): * (no inhibition at 64 μg/ml); Range of minimum inhibitory concentration, Enterococcus faecalis (Enterococcus faecalis; Table III): * (no inhibition at 64 μg/ml); Range of minimum inhibitory concentration, Escherichia coli (Escherichia coli; Table III): * (no inhibition at 64 μg/ml); Range of minimum inhibitory concentration, Micrococcus luteus (Micrococcus luteus; Table III): * (no inhibition at 64 μg/ml); Range of minimum inhibitory concentration, Neisseria gonorrhoeae (Neisseria gonorrhoeae; Table III): 16 µg/mL; Range of minimum inhibitory concentration, Staphylococcus aureus (Staphylococcus aureus; Table III): * (no inhibition at 64 μg/ml); Range of minimum inhibitory concentration, Stenotrophomonas maltophilia ([1]; Table III): * (no inhibition at 64 μg/ml); Range of minimum inhibitory concentration, Streptococcus pneumoniae (Streptococcus pneumoniae; Table III): * (no inhibition at 64 μg/ml)
3 | COc1ccc(/C=C\c2cc(I)c(OC)c(I)c2)cc1OP(=O)(O)O.NC(CO)(CO)CO.NC(CO)(CO)CO [Z] |  |  |  |  |  |  | 0.047 µg/mL | 0.040 µg/mL | 0.94 µg/mL | 0.025 µg/mL | 0.33 µg/mL | 0.021 µg/mL | 
4 | COC(=O)C(N)Cc1c[nH]c2ccccc12.COC(=O)C(N)Cc1c[nH]c2ccccc12.COc1ccc(C=Cc2cc(I)c(OC)c(I)c2)cc1OP(=O)(O)O [Y] |  |  |  |  |  |  | 0.22 µg/mL | 0.086 µg/mL | >1 µg/mL | 0.033 µg/mL | 0.37 µg/mL | 0.026 µg/mL | 
5 | C1COCCN1.C1COCCN1.COc1ccc(/C=C\c2cc(I)c(OC)c(I)c2)cc1OP(=O)(O)O [V] |  |  |  |  |  |  | 0.066 µg/mL | 0.054 µg/mL | >1 µg/mL | 0.033 µg/mL | 0.35 µg/mL | 0.028 µg/mL | 
6 | Lithium 3-bromo-4,4′,5-trbnethoxy-Z-stilbene 3′-O-phosphate [Compound 19b] | 0.0030 µg/mL | 0.11 µg/mL | 0.0026 µg/mL | 0.0039 µg/mL | 0.13 µg/mL | 0.0066 µg/mL |  |  |  |  |  |  | 
7 | Rubidium 3-bromo-4,4′,5-trimetboxy-Z-stilbene 3′-O-phosphate [Compound 19e] | 0.023 µg/mL | 2.6 µg/mL | 0.041 µg/mL | 0.043 µg/mL | 0.56 µg/mL | 0.042 µg/mL |  |  |  |  |  |  | 
8 | Calcium 3-bromo-4,4′,5-trimethoxy-Z-stilbene 3′-O-phosphate [Compound 19f] | 0.0022 µg/mL | 0.37 µg/mL | 0.0068 µg/mL | 0.0022 µg/mL | <0.001 µg/mL | 0.0063 µg/mL |  |  |  |  |  |  | 
9 | C1CCNCC1.C1CCNCC1.COc1ccc(/C=C\c2cc(I)c(OC)c(I)c2)cc1OP(=O)(O)O [W] |  |  |  |  |  |  | 0.070 µg/mL | 0.041 µg/mL | >1 µg/mL | 0.025 µg/mL | 0.33 µg/mL | 0.025 µg/mL | 
10 | COC(=O)CN.COC(=O)CN.COc1ccc(/C=C\c2cc(I)c(OC)c(I)c2)cc1OP(=O)(O)O [X] |  |  |  |  |  |  | 0.10 µg/mL | 0.054 µg/mL | >1 µg/mL | 0.030 µg/mL | 0.36 µg/mL | 0.023 µg/mL | 
11 | Cesium 3-bromo-4,4′,5-trimethoiy-phenyl-Z-stilbene 3′-O-phosphate [Compound 19d] | 0.0064 µg/mL | 0.48 µg/mL | 0.0066 µg/mL | 0.0044 µg/mL | 0.15 µg/mL | 0.0079 µg/mL |  |  |  |  |  |  | 
12 | Potassium 3-bromo-4,4′,5-trimethoxy-Z-stilbene 3′-O-phosphate [Compound 19c] | 0.0032 µg/mL | 0.24 µg/mL | 0.0029 µg/mL | 0.0035 µg/mL | 0.20 µg/mL | 0.0028 µg/mL |  |  |  |  |  |  | 
13 | Sodium 3-bromo-4,4′,-5-trimethoxy-Z-stilbene 3′-O-phosphate [Compound 19a] | 0.0034 µg/mL | 0.23 µg/mL | 0.0028 µg/mL | 0.0041 µg/mL | 0.093 µg/mL | 0.0046 µg/mL |  |  |  |  |  |  | 
14 | COc1ccc(/C=C\c2cc(I)c(OC)c(I)c2)cc1OP(=O)([O-])[O-].[Na+].[Na+] [Compound 0] |  |  |  |  |  |  |  |  |  |  |  |  | Range of MIC, Candida albicans (Candida albicans; Table VII, ATCC 90028): * (no inhibition at 64 μg/ml); Range of MIC, Cryptococcus neoformans (Cryptococcus neoformans; Table VII, ATCC 90112): * (no inhibition at 64 μg/ml); Range of MIC, Enterobacter cloacae (Enterobacter cloacae; Table VII, ATCC 13047): * (no inhibition at 64 μg/ml); Range of MIC, Enterococcus faecalis (Enterococcus faecalis; Table VII, ATCC 29212): * (no inhibition at 64 μg/ml); Range of MIC, Escherichia coli (Escherichia coli; Table VII, ATCC 25922): * (no inhibition at 64 μg/ml); Range of MIC, Micrococcus luteus (Micrococcus luteus; Table VII, Presque Isle 456): * (no inhibition at 64 μg/ml); Range of MIC, Neisseria gonorrhoeae (Neisseria gonorrhoeae; Table VII, ATCC 49226): 32 to 64 µg/mL; Range of MIC, Staphylococcus aureus (Staphylococcus aureus; Table VII, ATCC 29213): * (no inhibition at 64 μg/ml); Range of MIC, Stenotrophomonas maltophilia ([1]; Table VII, ATCC 13637): * (no inhibition at 64 μg/ml); Range of MIC, Streptococcus pneumoniae (Streptococcus pneumoniae; Table VII, ATCC 6303): * (no inhibition at 64 μg/ml)
15 | Magnesium 3-bromg-4,4′,5-trimethoxy-Z-stilbene 3′-O-phosphate [Compound 19g] | 0.0053 µg/mL | 0.27 µg/mL | 0.0039 µg/mL | 0.0045 µg/mL | 0.074 µg/mL | 0.0045 µg/mL |  |  |  |  |  |  | 
